Read-outs that look alike come from different tables or passages of the source.
Tests used:
[1] = test system: L. infantum promastigotes; test: Antipromastigote assay (L. infantum), MTT colorimetric; type: cell-based, Leishmania (L.) infantum; settings: Leishmania infantum, 48 h, read-out: L. infantum IC50 promastigotes
Method: (§1) Table 1 depicts the antileishmanial (L. infantum) activity evaluation performed against both the amastigote form (evaluated microscopically using an ex vivo intracellular model of mice macrophages) and the promastigote one (using an MTT colorimetric method).[32],[33] The cytotoxicity was evaluated against NCTC cells using an MTT colorimetric method and the selectivity index was determined using the ratio between the CC50 values (NCTC cells) and the IC50 values (amastigotes).[32] […] With respect to the substituents on the C ring, larger, hydrophobic groups conferred greater bioactivity (e.g., 9b–d), whereas small, hydrophilic groups such as a hydroxyl group afford modest to poor bioactivity.
(§2) Leishmania (L.) infantum (MHOM/BR/1972/LD) amastigotes were obtained from golden hamsters (Mesocricetus auratus) spleens following 60-70 days of infection via differential centrifugation. The Stauber method was used to determine the number of parasites.12 […]
Biological activity assays
Antipromastigote Assay (L. infantum)
L. infantum promastigotes (1 × 10^6 cells/well) were added to a 96-well plates. Treatment of the cells with selected compounds (serially diluted 0.14 to 200 μM) was performed in M199 medium supplemented with 0.25% hemin and 10% fetal bovine serum for 48 h at 24 °C. The MTT colorimetric assay was used to determine the activity (IC50) of the compounds. Miltefosine was used as a standard drug and untreated promastigotes were used as a negative control. The half inhibitory concentration (IC50) was determined from a sigmoidal regression of the concentration-response curves generated in GraphPadPrism7. […]

T. cruzi trypomastigotes = test: Antitrypomastigote assay (T. cruzi), resazurin; type: cell-based, Trypanosoma (T.) cruzi; settings: 24 h, read-out: T. cruzi IC50 trypomastigotes
Method: (§3) T. cruzi also assumes several cell morphologies during its lifecycle, which differ between the insect vector and mammalian host. In the latter environment, the parasite transitions between extracellular bloodstream trypomastigotes and intracellular amastigotes; both forms are clinically relevant, particularly during the acute stage of Chagas disease.[34] In this work, antitrypanosomal activity was tested against both the amastigote form (evaluated microscopically using an ex vivo intracellular model using mice macrophages) and the trypomastigote form (using the resazurin in vitro assay).[33],[35] […] In silico predictions of pharmacokinetic profiles were carried out using the SwissADME webtool (see the Supporting Information for details).[36] […]
(§4) […] Cultivation was performed in 2% fetal calf serum supplemented RPMI-1640 medium.
(§5) The trypomastigotes were maintained in a humidified incubator at 37 °C and with 5% CO2. […]
(§6) Biological activity assays […]
The half inhibitory concentration (IC50) was determined from a sigmoidal regression of the concentration-response curves generated in GraphPadPrism7. […]
Treatment of the cells with selected compounds (serially diluted 1.2 to 150 μM) was performed in a humidified incubator in RPMI 1640 medium for 24 h at 37 °C and with 5% CO2. Resazurin (0.011% in PBS) was added subsequently to verify parasite viability. Benznidazole was used as a standard drug. The optical density was determined at 570 nm using the FilterMax F5 (Molecular Devices). […]

L. infantum amastigotes = test: Antiamastigote assay (L. infantum), ex vivo intracellular model of mice macrophages, microscopy; type: cell-based, Leishmania (L.) infantum; settings: 96 h, read-out: L. infantum IC50 amastigotes
Method: as §1, §2
(§7) Peritoneal macrophages were obtained via washing the peritoneal cavity of BALB/c mice with 10% foetal calf serum supplemented RPMI-1640 medium (pH 7.2). The macrophages were maintained in a humidified incubator at 37 °C and with 5% CO2.
as §6
Antiamastigote Assay (L. infantum)
Peritoneal macrophages (1 × 10^5/well) were added to a 16-well slide chambers (NUNC) and incubated with 5% CO2 at 37 °C. The cells were subsequently infected with L. infantum amastigotes (10:1 amastigotes/macrophage) for 24 h. Treatment of the cells with selected compounds (serially diluted 1.2 to 150 μM) was performed in a humidified incubator for 96 h at 37 °C and with 5% CO2. Untreated cells were used as a negative control and miltefosine was used as a standard drug. The treated cells were fixed on slides with methanol, stained with Giemsa and observed under a light microscope.13 The infection index was used in order to determine the half inhibitory concentration (IC50) (no. infected macrophages × no. amastigotes / total no. […]

[2] = Mammalian toxicity, MTT colorimetric; type: cell-based, murine; settings: mouse
Method: as §1, with “bioactivity. […]” for “bioactivity.”
Murine conjunctive fibroblasts NCTC clone 929 (ATCC) were maintained in 10% foetal calf serum supplemented RPMI-1640 medium (pH 7.2) at 37 °C in a humidified incubator with 5% CO2. […]
as §6
NCTC cells (6 × 10^4/well) were added to a 96-well plate. Treatments of the cells with selected compounds (serially diluted 1.5 to 200 μM) was performed in a humidified incubator for 96 h at 37 °C and with 5% CO2.
The MTT colorimetric method was used to determine the 50% cytotoxic concentration (CC50) and the selectivity index (CC50 against NCTC cells/IC50 against amastigotes).15 […]
[…] At 6 h and 24 h post-treatment, a 1 mL aliquot was taken for imaging. The cell cycle experiment was preformed twice independently.
Generation of mNG::RAD51 tagged cell line
The single-stranded DNA-binding protein RAD51, associated with DNA Repair, LmxM.28.0550 was tagged with endogenous fluorescent protein mNeonGreen (mNG) at the N-terminus. […]
Primers for constructs and sgRNA were designed using LeishGEdit (http://www.leishGEdit.net).
PCR was at 94 °C for 5 min, followed by 35 cycles at 94 °C (15 sec), 65 °C (15 sec), 72 °C (2 min) then finally 72 °C (1 min).
PCR was at 94 °C for 30 sec, followed by 30 cycles at 94 °C (30 sec), 60 °C (30 sec), 72 °C (30 sec) then finally 72 °C (2 min). […] Combined PCR products were precipitated for 20 min with 10 μL 3M sodium acetate and 300 μL EtOH, pelleted at 14000 min-1 30 min, washed once with 70% EtOH, re-pelleted and resuspended in […]
Promastigotes (1 × 10^7 cells) were combined with PCR products and transfected using the Amaxa Nucleofector II.17 Electroporation was performed using 2 mm cuvettes on the X-100 program, followed by immediate suspension in pre-warmed M199 medium. Successful transfectants were selected with 20 μg mL-1 Puromycin 15 h after transfection, taking 4 days to reach stable growth in culture. mNG::RAD51 nuclear foci studies mNG::RAD51 promastigotes (5 × 10^6 cells mL-1) in 7 mL of M199 medium were treated with 7 μL o f compound (S)-9a or (S)-9b dissolved in DMSO giving a final concentration of 50 μM. Phleomycin was used as a positive control at a final concentration of 25 μg mL-1. At T = 0, 15, 30, 60 min, and 2, 6, 24 h post-treatment a 0.8 mL aliquot was taken for imaging.

T. cruzi amastigotes = test: Antiamastigote assay (T. cruzi), ex vivo intracellular model using mice macrophages, microscopy; type: cell-based, Trypanosoma (T.) cruzi
Method: as §3, §4, §5, §7, §6
Peritoneal macrophages (1 × 10^5 cells/well) obtained from the peritoneal cavity of BALB/C mice were added to 16-well chambers (NUNC, Thermo Fischer Scientific). The cells were infected with trypomastigotes (10:1 parasites/macrophage) for 2 h. Then treatment of the infected macrophages with selected compounds (serially diluted 1.2 to 100 μM) was performed in a humidified incubator for 48 h at 37 °C and with 5% CO2. The treated cells were fixed on slides using methanol, stained with Giemsa and observed under a light microscope (EVOS M5000, Thermo, USA) with digital image equipment. The infection index was used in order to determine the half inhibitory concentration (IC50) (no. infected macrophages × no. amastigotes / total no.

[3] = Trypanosoma cruzi, ± SD, resazurin
[4] = Leishmania infantum, Peritoneal macrophage, ± SD, intracellular, peritoneal macrophages
[5] = Trypanosoma cruzi, Peritoneal macrophage, 48 h, ± SD, read-out: T. cruzi IC50 amastigotes
[6] = Leishmania infantum, Peritoneal macrophage
[7] = ± SD, NCTC cells, MTT, 96 h, read-out: CC50
[8] = ± SD, intracellular, peritoneal macrophages

Row | Structure (SMILES) | IC50 ([1]; ± SD, MTT) [µM] | IC50 (T. cruzi trypomastigotes; [3]) [µM] | IC50 (T. cruzi trypomastigotes; ± SD, resazurin) [µM] | IC50 (L. infantum amastigotes; [4]) [µM] | CC50 at 96 h [2] [µM] | IC50 (T. cruzi amastigotes; [5]) [µM] | IC50 [1] [µM] | IC50 (T. cruzi trypomastigotes; Trypanosoma cruzi) [µM] | IC50 (L. infantum amastigotes; [6]) [µM] | CC50 at 96 h [2, 7] [µM] | IC50 (L. infantum amastigotes; [8]) [µM] | IC50 (T. cruzi amastigotes; Trypanosoma cruzi, Peritoneal macrophage, 48 h, read-out: T. cruzi IC50 amastigotes, ± SD) [µM] | IC50 (T. cruzi amastigotes; read-out: T. cruzi IC50 amastigotes, ± SD, peritoneal macrophages, 48 h) [µM]
1 | COc1ccc(COc2ccc(C[C@@H]3c4cc(OC)c(OC)cc4CCN3C)cc2Br)cc1 [(R)-9c] | 3.5 ± 1.2 | < 10 | 8.5 ± 3.1 | > 150 | 13.4 ± 1.3 | > 100 | – | – | – | – | – | – | –
2 | COc1ccc(C[C@@H]2c3cc(OC)c(OC)cc3CCN2C)cc1O [(R)-10a, (–)-laudanidine] | – | – | – | – | – | – | 30.2 ± 4.8 | > 150 | > 150 | > 200 | – | – | –
3 | COc1cc2c(cc1OC)[C@H](Cc1ccc(OCc3ccccc3)cc1)N(C)CC2 [(S)-9d] | 3.7 ± 0.2 | < 10 | 7.6 ± 0.4 | < 10 | 6.6 ± 1.5 | 3.2 ± 0.5 | – | – | – | – | 7.5 ± 2.2 | – | –
4 | COc1cc2c(cc1OC)[C@H](Cc1ccc(Oc3cc(C[C@H]4c5cc(OC)c(OC)cc5CCN4C)ccc3O)cc1)N(C)CC2 [(S,S)-13, (+)-dauricine] | 5.5 ± 0.6 | 5.1 ± 4.8 | – | > 150 | 15.9 ± 0.8 | 2.3 ± 1.1 | – | – | – | – | – | – | –
5 | COc1cc2c(cc1OC)[C@@H](Cc1ccc(Br)cc1)N(C)CC2 [(R)-9a] | 15.5 ± 5.8 | 28.3 ± 11.7 | – | 23.4 ± 3.4 | 86.8 ± 2.9 | 31.8 ± 4.3 | – | – | – | – | – | – | –
6 | COc1ccc(COc2ccc(C[C@H]3c4cc(OC)c(OC)cc4CCN3C)cc2Oc2ccc(C[C@H]3c4cc(OC)c(OC)cc4CCN3C)cc2)cc1 [(S,S)-12] | 1.1 ± 0.5 | 5.6 ± 2.1 | – | > 150 | 20.8 ± 5.4 | > 100 | – | – | – | – | – | – | –
7 | COc1cc2c(cc1OC)[C@H](Cc1ccc(Oc3cc(C[C@H]4c5cc(OC)c(OC)cc5CCN4C)ccc3OC)cc1)N(C)CC2 [(S,S)-11, (+)-O-methylthalibrine] | 0.7 ± 0.01 | 3.7 ± 3.6 | – | > 150 | 11.4 ± 0.2 | > 100 | – | – | – | – | – | – | –
8 | COc1ccc(COc2ccc(C[C@@H]3c4cc(OC)c(OC)cc4CCN3C)cc2Oc2ccc(C[C@@H]3c4cc(OC)c(OC)cc4CCN3C)cc2)cc1 [(R,R)-12] | 1.1 ± 0.5 | 7.3 ± 1.5 | – | > 150 | 13.9 ± 1.6 | > 100 | – | – | – | – | – | – | –
9 | COc1ccc(C[C@H]2c3cc(OC)c(OC)cc3CCN2C)cc1O [(S)-10a, (+)-laudanidine] | – | – | – | – | – | – | 95.4 ± 2 | > 150 | > 150 | > 200 | – | < 10 | 5.9 ± 0.9
10 | COc1cc2c(cc1OC)[C@@H](Cc1ccc(OCc3ccccc3)cc1)N(C)CC2 [(R)-9d] | 1.1 ± 0.5 | 16.5 ± 6.1 | – | < 10 | 28.1 ± 0.5 | 6.2 ± 5.9 | – | – | – | – | 9.4 ± 0.5 | – | –
11 | COc1ccc(COc2ccc(C[C@H]3c4cc(OC)c(OC)cc4CCN3C)cc2Br)cc1 [(S)-9c] | 5.2 ± 1.3 | 11.1 ± 1.7 | – | > 150 | 6.3 ± 2.3 | 3.3 ± 0.01 | – | – | – | – | – | – | –
12 | COc1cc2c(cc1OC)[C@@H](Cc1ccc(OC)c(OCc3ccccc3)c1)N(C)CC2 [(R)-9b] | 3.3 ± 1.6 | 72.3 ± 3 | – | 13.1 ± 0.8 | 57.3 ± 3.3 | – | – | – | – | – | – | – | –
13 | CCCCCCCCCCCCCCCCOP(=O)([O-])OCC[N+](C)(C)C [miltefosine, reference compound] | – | – | – | 6.5 ± 3 | 120 ± 4.2 | – | – | – | – | – | – | – | –
14 | COc1cc2c(cc1OC)[C@@H](Cc1ccc(O)c(Oc3ccc(C[C@H]4c5cc(OC)c(OC)cc5CCN4C)cc3)c1)N(C)CC2 [(S,R)-13] | 5.7 ± 1.3 | 4.2 ± 4.8 | – | 3.6 ± 0.3 | 15.6 ± 1.6 | 4.4 ± 0.4 | – | – | – | – | – | – | –
15 | COc1cc2c(cc1OC)[C@@H](Cc1ccc(O)cc1)N(C)CC2 [(R)-10b, (–)-armepavine] | 4.8 ± 0.8 | 107 ± 1.8 | – | > 150 | > 200 | > 100 | – | – | – | – | – | – | –
16 | COc1cc2c(cc1OC)[C@@H](Cc1ccc(Oc3cc(C[C@@H]4c5cc(OC)c(OC)cc5CCN4C)ccc3O)cc1)N(C)CC2 [(R,R)-13, (–)-dauricine] | 3.2 ± 1.1 | 3.7 ± 2.9 | – | 3.7 ± 0.6 | 7 ± 1 | > 100 | – | – | – | – | – | – | –
17 | O=C(Cn1ccnc1[N+](=O)[O-])NCc1ccccc1 [benznidazole, reference compound] | – | 12.8 ± 0.7 | – | – | > 200 | 5 ± 1.5 | – | – | – | – | – | – | –
